# Target: T1, human SCD1 (hSCD-1) (Homo sapiens, UniProt O00767)
# T1 construct: made in house; host or cells: baculovirus/Sf9 insect cells
# T1 sequence (O00767 1-359): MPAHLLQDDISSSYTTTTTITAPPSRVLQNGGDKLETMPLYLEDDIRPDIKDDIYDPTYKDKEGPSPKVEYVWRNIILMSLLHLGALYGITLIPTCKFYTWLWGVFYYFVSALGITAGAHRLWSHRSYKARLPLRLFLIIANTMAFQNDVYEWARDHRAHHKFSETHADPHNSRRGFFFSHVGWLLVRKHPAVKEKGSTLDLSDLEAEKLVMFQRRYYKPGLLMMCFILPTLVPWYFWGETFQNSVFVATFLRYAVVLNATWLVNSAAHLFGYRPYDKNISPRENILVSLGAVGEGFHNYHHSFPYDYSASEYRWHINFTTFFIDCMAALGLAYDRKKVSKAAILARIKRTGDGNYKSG
# Assay: SCD enzyme activity assay, reconstituted human SCD1 (conversion of radiolabeled stearoyl-CoA to oleoyl-CoA)
# Assay type: biochemical
# Details: human SCD-1
# Method: The potency of compounds of formula I against the stearoyl-CoA desaturase was determined by measuring the conversion of radiolabeled stearoyl-CoA to oleoyl-CoA using rat liver microsome or human SCD1 (hSCD-1) following previously published procedures with some modifications (Joshi, et al., J. Lipid Res., 18: 32-36 (1977); Talamo, et al., Anal. Biochem, 29: 300-304 (1969)). Liver microsome was prepared from male Wistar or Sprague Dawley rats on a high carbohydrate diet for 3 days (LabDiet # 5803, Purina). The livers were homogenized (1:10 w/v) in a buffer containing 250 mM sucrose, 1 mM EDTA, 5 mM DTT and 50 mM Tris-HCl (pH 7.5). After a 100,000×g centrifugation for 60 min, the liver microsome pellet was suspended in a buffer containing 100 mM sodium phosphate, 20% glycerol, 2 mM DTT, and stored at −78° C. Human SCD1 desaturase system was reconstituted using human SCD1 from a baculovirus/Sf9 expression system, cytochrome B5 and cytochrome B5 reductase. Typically, test compound in 2 μL DMSO was incubated for 15 min at room temperature with 180 μL of the SCD enzyme in a buffer containing 100 mM Tris-HCl (pH 7.5), ATP (5 mM), Coenzyme-A (0.1 mM), Triton X-100 (0.5 mM) and NADH (2 mM). The reaction was initiated by the addition of 20 μL of [^3H]-stearoyl-CoA (final concentration=2 μM, radioactivity concentration=1 μCi/mL). After 10 min, the reaction mixture (80 μL) was mixed with a calcium chloride/charcoal aqueous suspension (100 μl, charcoal (10% w/v) plus 25 μL CaCl2 (2N). After centrifugation to precipitate the radioactive fatty acid species, tritiated water released from 9,10-[^3H]-stearoyl-CoA by the SCD enzyme was quantified on a scintillation counter.
row,Structure (SMILES),IC50
1,O=C(O)Cn1nnc(-c2cnc(N3CCN(c4cc(F)ccc4Cl)CC3)s2)n1,< 0.02 µM
2,O=C(O)Cn1nnc(-c2cc(N3CCC(C(=O)c4cc(C(F)(F)F)ccc4Cl)CC3)no2)n1,0.022 µM
3,O=C(O)Cn1nnc(-c2cc(N3CCN(C(=O)c4cccc(OC(F)(F)F)c4)CC3)no2)n1,< 0.02 µM
4,O=C(O)Cn1nnc(-c2cnc(N3CCCN(c4cc(F)ccc4Cl)CC3)s2)n1,0.029 µM
5,CC1(c2ccccc2C(=O)C2CCN(c3cc(-c4nnn(CC(=O)O)n4)on3)CC2)CC1,< 0.02 µM
6,O=C(O)Cn1nnc(-c2cc(N3CCC(C(=O)c4cc(F)ccc4Cl)CC3)no2)n1,< 0.02 µM
7,CC(C)(F)c1ccccc1C(=O)C1CCN(c2cc(-c3nnn(CC(=O)O)n3)on2)CC1,< 0.02 µM
8,O=C(O)Cn1nnc(-c2cnc(N3CCC(C(=O)c4cc(F)ccc4Cl)CC3)nc2)n1,0.046 µM
9,O=C(O)Cn1nnc(-c2cc(N3CCC(C(=O)c4cc(F)ccc4C4CC4)CC3)no2)n1,< 0.02 µM
10,O=C(O)Cn1nnc(-c2cnc(N3CCC(C(=O)c4cc(Cl)ccc4Cl)CC3)nc2)n1,0.058 µM
11,O=C(O)Cn1nnc(-c2cc(N3CCC(C(=O)c4ccccc4OC(F)F)CC3)no2)n1,0.04 µM
12,Cc1ccc(F)cc1C(=O)C1CCN(c2cc(-c3nnn(CC(=O)O)n3)on2)CC1,0.02 µM
13,CC1(c2ccc(F)cc2C(=O)C2CCN(c3cc(-c4nnn(CC(=O)O)n4)on3)CC2)CC1,< 0.02 µM
14,O=C(O)Cn1nnc(-c2cnc(N3CCCN(c4ccccc4C(F)(F)F)CC3)s2)n1,0.03 µM
15,O=C(O)Cn1nnc(-c2cc(N3CCC(C(=O)c4cc(F)ccc4Br)CC3)no2)n1,< 0.02 µM
16,O=C(O)Cn1nnc(-c2cc(N3CCC(C(=O)c4ccc(F)cc4Cl)CC3)no2)n1,0.05 µM
17,O=C(O)Cn1nnc(-c2cc(N3CCC(C(=O)c4cc(Cl)ccc4Cl)CC3)no2)n1,0.031 µM
18,O=C(O)Cn1nnc(-c2cc(N3CCC(C(=O)c4cc(F)ccc4C(F)(F)F)CC3)no2)n1,< 0.02 µM
19,O=C(O)Cn1nnc(-c2cc(N3CCC(C(=O)c4cc(F)ccc4C(F)F)CC3)no2)n1,< 0.02 µM
20,O=C(O)Cn1nnc(-c2cnc(N3CCC(c4cccc(C(F)(F)F)c4)CC3)s2)n1,< 0.02 µM
21,CCC(C)c1ccc(F)cc1C(=O)C1CCN(c2cc(-c3nnn(CC(=O)O)n3)on2)CC1 (stereo not shown) [drawing 70],< 0.02 µM
22,O=C(O)Cn1nnc(-c2cnc(N3CCN(c4cc(C(F)(F)F)ccc4Cl)CC3)s2)n1,< 0.02 µM
23,O=C(O)Cn1nnc(-c2cnc(N3CCN(c4cc(Cl)ccc4F)CC3)s2)n1,< 0.02 µM
24,O=C(O)Cn1nnc(-c2cc(N3CCN(c4cccc(C(F)(F)F)c4)CC3)no2)n1,0.083 µM
25,O=C(O)Cn1nnc(-c2cnc(N3C[C@@H]4C[C@H]3CN4c3cc(F)ccc3Cl)s2)n1,< 0.02 µM
26,CCC(C)c1ccc(F)cc1C(=O)C1CCN(c2cc(-c3nnn(CC(=O)O)n3)on2)CC1 (stereo not shown) [drawing 71],< 0.02 µM
27,O=C(O)Cn1nnc(-c2cnc(N3C[C@@H]4C[C@H]3CN4c3cccc(Cl)c3)s2)n1,< 0.02 µM
28,O=C(O)Cn1nnc(-c2cc(N3CCC(C(=O)c4cc(F)ccc4CC4CC4)CC3)no2)n1,< 0.02 µM

row,Structure (SMILES),IC50
1,O=C(O)Cn1nnc(-c2cc(N3CCN(C(=O)c4cc(C(F)(F)F)ccc4Cl)CC3)no2)n1,0.024 µM
2,O=C(O)Cn1nnc(-c2cnc(N3CCN(c4cc(C(F)(F)F)cc(C(F)(F)F)c4)CC3)nc2)n1,0.044 µM
3,CCc1ccc(Cl)cc1C(=O)C1CCN(c2cc(-c3nnn(CC(=O)O)n3)on2)CC1,< 0.02 µM
4,O=C(O)Cn1nnc(-c2cc(N3CCC(C(=O)c4cc(Br)ccc4Br)CC3)no2)n1,< 0.02 µM
5,O=C(O)Cn1nnc(-c2cc(N3CCC(C(=O)c4ccccc4OC(F)(F)F)CC3)no2)n1,0.066 µM
6,CCC(C)c1ccccc1C(=O)C1CCN(c2cc(-c3nnn(CC(=O)O)n3)on2)CC1 (stereo not shown),< 0.02 µM
7,O=C(O)Cn1nnc(-c2cc(N3CCC(C(=O)c4cc(Cl)ccc4C(F)(F)F)CC3)no2)n1,0.032 µM
8,O=C(O)Cn1nnc(-c2cc(N3CCC(C(=O)c4ccccc4C(F)(F)F)CC3)no2)n1,< 0.02 µM
9,O=C(O)Cn1nnc(-c2cnc(N3CCN(c4ccccc4C(F)(F)F)CC3)s2)n1,< 0.02 µM
10,O=C(O)Cn1nnc(-c2cnc(N3CCC(C(=O)c4cc(F)ccc4C(F)(F)F)CC3)nc2)n1,0.027 µM
11,CCc1ccc(F)cc1C(=O)C1CCN(c2cc(-c3nnn(CC(=O)O)n3)on2)CC1,< 0.02 µM
12,O=C(O)Cn1nnc(-c2cc(N3CCC(C(=O)c4cc(C(F)(F)F)ccc4C(F)(F)F)CC3)no2)n1,< 0.02 µM
13,O=C(O)Cn1nnc(-c2cnc(N3CCC(C(=O)c4ccccc4C(F)(F)F)CC3)s2)n1,< 0.02 µM
14,Cc1ccc(Cl)cc1C(=O)C1CCN(c2cc(-c3nnn(CC(=O)O)n3)on2)CC1,0.028 µM
15,Cc1ccc(Cl)c(C(=O)C2CCN(c3cc(-c4nnn(CC(=O)O)n4)on3)CC2)c1,0.079 µM
16,O=C(O)Cn1nnc(-c2cc(N3CCC(C(=O)c4cc(Cl)ccc4Br)CC3)no2)n1,< 0.02 µM
17,O=C(O)Cn1nnc(-c2cnc(N3CCC(C(=O)c4cc(OC(F)(F)F)ccc4Cl)CC3)nc2)n1,< 0.02 µM
18,O=C(O)Cn1nnc(-c2cnc(N3CC=C(c4ccccc4C(F)(F)F)CC3)s2)n1,< 0.02 µM
19,O=C(O)Cn1nnc(-c2cc(N3CCC(C(=O)c4ccccc4Br)CC3)no2)n1,0.028 µM
20,O=C(O)Cn1nnc(-c2cc(N3CCC(C(=O)c4cc(F)ccc4C4CCC4)CC3)no2)n1,< 0.02 µM
21,COc1ccc(OC(F)(F)F)cc1C(=O)C1CCN(c2cc(-c3nnn(CC(=O)O)n3)on2)CC1,0.085 µM
22,O=C(O)Cn1nnc(-c2cc(N3CCN(c4cc(F)ccc4Cl)CC3)no2)n1,0.035 µM
23,Cc1ccc(C(F)(F)F)cc1C(=O)C1CCN(c2cc(-c3nnn(CC(=O)O)n3)on2)CC1,0.048 µM
24,O=C(O)Cn1nnc(-c2cc(N3CCC(C(=O)c4cc(Cl)ccc4C(F)F)CC3)no2)n1,< 0.02 µM
25,COc1ccc(Cl)c(C(=O)C2CCN(c3cc(-c4nnn(CC(=O)O)n4)on3)CC2)c1,0.095 µM
26,O=C(O)Cn1nnc(-c2cnc(N3CCN(c4cccc(OC(F)(F)F)c4)CC3)s2)n1,< 0.02 µM
27,CCCc1ccc(Cl)cc1C(=O)C1CCN(c2cc(-c3nnn(CC(=O)O)n3)on2)CC1,0.023 µM

# Reference: US20110301143A1, “HETEROCYCLIC DERIVATIVES AS INHIBITORS OF STEAROYL-COENZYME A DELTA-9 DESATURASE” (priority 2009, published 2011)
